Where a name gives a salt, the structure may show the parent alone. Read-outs that look alike come from different tables or passages of the source. One block for each molecule: values may come before it.
Legend:
Human Synovial PLA2 = target: T1, Human Synovial PLA2 (Homo sapiens, UniProt P14555); assay: Inhibition of PLA2 derived from human synovial fluid (HSF), arachidonic acid release from 3H-AA E. coli substrate; format: biochemical; details: for % Inhibition HSF / inhibition at 10 µM: Drug Concentration 10 μM, Example 8: average of two runs; for % Inhibition HSF: 10 µM; for inhibition at 50 µM: Drug Concentration 50 μM
T1 construct: Purified human synovial fluid; from tissue; host or cells: human synovial fluid (purified)
T1 sequence (P14555 21-144): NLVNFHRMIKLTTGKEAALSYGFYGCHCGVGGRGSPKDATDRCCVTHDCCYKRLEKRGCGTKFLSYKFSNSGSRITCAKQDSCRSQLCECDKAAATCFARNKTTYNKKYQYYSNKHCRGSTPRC
Experimental: (§1) The compounds of the invention are tested in an in vitro isolated phospholipase A2 assay to determine the ability of the test compounds to inhibit the release of arachidonic acid from an arachidonic acid-containing substrate by the action of phospholipase A enzyme from two human sources.
(§2) 1. INHIBITION OF PLA2 DERIVED FROM HUMAN PLATELETS AND HUMAN SYNOVIAL FLUID
(§3) This assay is carried out as follows:
(§4) Into a 15 mL polypropylene tube are added the following: […]
(§5) *pre-incubate at room temperature 30 min prior to substrate addition.
(§6) ^1. Prepared by adding 2 mL deionized and distilled water to 2 mL ^3 H-arachidonate labeled E. coli (lower count), to which is added 1 mL of ^3 H-arachidonate labeled E. coli (higher count) to yield a total of […] substrate (containing 1000 nmoles phospholipid, PL).
(§7) ^2 Stock 0.1M CaCl2 required for enzyme activity.
(§8) ^3 Stock 0.5M Trisma-Base. Stock 0.5M Trisma-HCl. Adjust pH to 7.5 (optimum for enzyme).
(§9) ^4 Deionized and distilled water.
(§10) ^5 Stock 10 mM prepared in dimethyl sulfoxide. Make 1:2 dilution with dimethyl sulfoxide and add 1 μL to 100 μL assay tube.
^6 Two human PLA2 enzymes are used: […]
(b) Purified human synovial fluid.
(§11) Incubate the […] reaction mixture for 10 minutes at 37° C. in a shaking water bath. The reaction is terminated by the addition of 2 mL tetrahydrofuran, followed by vortexing. NH2 columns ([…]--Analytichem International) are conditioned with 0.5 mL tetrahydrofuran followed by 0.5 mL tetrahydrofuran/water (2 mL:0.1 mL, v/v).
(§12) The sample is loaded onto the columns and slowly dram through them. The hydrolyzed arachidonic acid retained in the columns is eluted therefrom with 1 mL tetrahydrofuran/glacial acetic acid (2%). The arachidonic acid is transferred to scintillation vials and quantitated by β-counting analysis. A "total counts" sample is prepared by pipetting 25 μl, ^3 H-arachidonate E. coli directly into a scintillation vial to which is added 1 mL tetrahydrofuran. 10 mL aquasol (scintillation cocktail) is added to all samples.

Human Platelet PLA2 = target: T2, Human Platelet PLA2 (Homo sapiens, UniProt P14555); assay: Inhibition of PLA2 derived from human platelets (HP), arachidonic acid release from 3H-AA E. coli substrate; format: biochemical; details: for % Inhibition HP / inhibition at 10 µM: Drug Concentration 10 μM, Example 8: average of two runs; for % Inhibition HP: 10 µM; for inhibition at 50 µM: Drug Concentration 50 μM
T2 construct: semi-purified human platelet acid extract PLA2; from tissue; host or cells: human platelets (semi-purified acid extract)
T2 sequence (P14555 21-144): T1 sequence (P14555 21-144)
Experimental: as §1, §2, §3, §4, §5, §6, §7, §8, §9, §10
^6 Two human PLA2 enzymes are used:
(a) semi-purified human platelet acid extract PLA2 (in 10 mM sodium acetate buffer, pH 4.5). Remove protein precipitate by centrifugation at about 2200 rpm for 10 minutes. […]
as §11, §12

[1] = system: paw edema induced by the exogenous administration of PLA2; assay: Murine paw edema assay (edema induced by exogenous PLA2); format: in vivo, mouse (male CD-1); details: for % change paw edema (in words): dose and time not given; for % change paw edema: 30 mg/kg i.p., * p ≤0.05
[2] = system: TPA-induced ear edema in mouse ears; assay: TPA-induced dermal inflammation in mouse ears; format: in vivo, mouse (female Swiss Webster); details: Topical, 30 min after TPA, measured 4 h after TPA, * p ≤0.05
Experimental: 2. TPA-induced dermal inflammation in mouse ears
Female Swiss Webster mice (Buckshire; 8 weeks old) were divided into groups of six. Tetradecanoylphorbol acetate CrPA) was dissolved in acetone at concentrations of 50 mg/ml and 200 μg/ml, respectively. Each mouse received 4 μg/ear of TPA on the right ear. These suboptimal doses of phlogistics were applied by an automatic pipette in 10 μl volumes to both the inner and outer surfaces of the ear. The left ear (control) received acetone or vehicle. […] Drags were given 30 min. after treatment (+30 min) with TPA. Edema measurements were taken with an Oditest calipers. The thickness of the right and left ears were usually measured in traits of 0.01 mm 4 h after TPA application. Ear edema was calculated by subtracting the thickness of the left ear (vehicle control) from right ear (treated ear).

[3] = test compounds, value in parentheses, Table 1, read-out: (IC50) HSF
[4] = test compounds, value in parentheses, Table 1, read-out: (IC50) HP

Compound: CCCCCCCCC#CCCCCCCCC(=O)Nc1nc(CC(=O)O)cs1 [Example 5, 2-[(1-Oxo-9-octadecynyl)amino]-4-thiazoleacetic acid, tromethamine salt]
% Inhibition HSF (Human Synovial PLA2): 66%
% Inhibition HP (Human Platelet PLA2): 26%

Compound: CCCC/C=C\CCCCCCCC(=O)Nc1nc(CC(=O)O)cs1 [Example 8, 2-[((Z)-1-Oxo-9-tetradecenyl)amino]-4-thiazoleacetic Acid]
% Inhibition HSF (Human Synovial PLA2): 2%
inhibition at 10 µM (Human Platelet PLA2): 65.6%

Compound: CC1=C(CC/C(C)=C/CC/C(C)=C/CCC2=CC(=O)OC2O)C(C)(C)CCC1 (centres unmarked) [Luffariellolide, reference compound]
% change paw edema (in words) [1]: Inactive

Compound: CCCCCCCCC#CCCCCCCCC(=O)Nc1nc(CC(=O)O)cs1 [Example 4, 2-[(1-Oxo-9-octadecynyl)amino]-4-thiazoleacetic acid]
% Inhibition HSF (Human Synovial PLA2): 42.5%
% Inhibition HP (Human Platelet PLA2): 8.9%

Compound: c1ccc2nc(COc3cccc4ccccc34)ccc2c1 [WY-47288, reference compound]
% change paw edema (in words) [1]: Inactive
% Change Edema ([2]; 1 mg/ear): -40%

Compound: CCCCC/C=C\C/C=C\C/C=C\C/C=C\CCCC(=O)O [Arachidonic Acid, reference compound]
IC50 (Human Synovial PLA2; standard drugs, read-out: IC50 Human Synovial PLA2 (standard drugs)): 3.2 µM
IC50 (Human Platelet PLA2; standard drugs, read-out: IC50 Human Platelet PLA2 (standard drugs)): 8.6 µM

Compound: CC/C=C\C/C=C\C/C=C\CCCCCCCC(=O)Nc1nc(CC(=O)O)cs1 [Example 7, 2-[((Z,Z,Z)-1-Oxo-9,12,15-octadecatrienyl)amino]-4-thiazole-acetic acid]
inhibition at 10 µM (Human Synovial PLA2): 38.5%
inhibition at 10 µM (Human Platelet PLA2): 0.5%

Compound: CCCCC/C=C/C/C=C/CCCCCCCC(=O)Nc1nc(CC(=O)O)cs1 [Example 6]
inhibition at 10 µM (Human Synovial PLA2): 84.8%
inhibition at 10 µM (Human Platelet PLA2): 74.6%

Compound: CCCCCCCC/C=C/CCCCCCCC(=O)Nc1nc(CC(=O)O)cs1 [Example 3, 2-[((E)-1-Oxo-9-octadecenyl)amino]-4-thiazoleacetic acid]
% change paw edema ([1]; 10 min after PLA2): -33%
% change paw edema ([1]; 30 min after PLA2): -43%
inhibition at 50 µM (Human Synovial PLA2): 81.7%
IC50 (Human Synovial PLA2; [3]): 2.1 µM
inhibition at 50 µM (Human Platelet PLA2): 70%
IC50 (Human Platelet PLA2; [4]): 25.7 µM
% Change Edema ([2]; 100 mg/ear (so in the source)): -20%

Further lines, results first:

inhibition at 10 µM (Human Synovial PLA2): 25.9%
inhibition at 10 µM (Human Platelet PLA2): 36%
Compound: CCCCCCCC/C=C\CCCCCCCC(=O)Nc1nc(CC(=O)O)cs1 [Example 2, 2-[((Z)-1-Oxo-9-octadecenyl)amino]-4-thizaoleacetic acid, tromethamine (2-amino-2-hydroxymethyl)-1,3-propanediol) salt]

% Inhibition HSF (Human Synovial PLA2): 26.9%
% Inhibition HP (Human Platelet PLA2): 74%
Compound: CCCC/C=C\CCCCCCCC(=O)Nc1nc(CC(=O)O)cs1 [Example 9, 2[((Z)-1-Oxo-9-tetradecenyl)amino]-4-thiazoleacetic acid, tromethamine salt]

inhibition at 50 µM (Human Synovial PLA2): 96%
IC50 (Human Synovial PLA2; [3]): 1.7 µM
inhibition at 50 µM (Human Platelet PLA2): 57.5%
IC50 (Human Platelet PLA2; [4]): 27.9 µM
Compound: CCCCCCCC/C=C\CCCCCCCC(=O)Nc1nc(CC(=O)O)cs1 [Example 1, 2[((Z)-1-Oxo-9-octadecenyl)amino]-4-thiazoleacetic acid]

inhibition at 50 µM (Human Synovial PLA2): 86.3%
inhibition at 50 µM (Human Platelet PLA2): 82.7%
Compound: CCCCC/C=C\C/C=C\CCCCCCCCCC(=O)Nc1nc(CC(=O)O)cs1 [Example 10, 2[((Z,Z)-1-Oxo-11,14-eicosadienyl)amino]-4-thiazoleacetic acid]

Reference: patent publication US5688821A, “Unsaturated fatty acyl derivatives of 2-aminothiazoleacetic acid and their salts as inhibitors of phospholipase A2 derived from human sources” (American Home Products Corporation, priority 1996, dated 1997)
